Measured values taken from US12565490B2, “Inhibitors of Receptor Interacting Protein Kinase I for the treatment of disease” (Board of Regents, The University of Texas System, priority 2020, dated 2026).

What follows are molecules tested on human monocytic cell line U937 (assay: Human U937 cellular necroptosis assay). Conditions: U-937; U937 cells stimulated with 25 ng/mL human TNFalpha and 25 μM z-VAD-FMK; 22 hr; viability by Cell Titer-Glo 2.0; read-out: hU937 IC50.
Type: cell-based
Outline: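 U937 cells (5000/well) driven to necroptosis by 25 ng/mL human TNFalpha plus 25 μM z-VAD-FMK alongside 1:3-diluted compounds, 22 hr at 37° C, 5% CO2. Viability by CellTiter-Glo luminescence; IC50 from four-parameter logistic fit.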

Q: Which IC50 does the source give for Cc1cnc(C(=O)N[C@H]2COc3cc(Cl)cnc3N(C)C2=O)nc1C1COCCO1 (stereo partly drawn) [Example 164, N—((S)-8-chloro-5-methyl-4-oxo-2,3,4,5-tetrahydropyrido[3,2-b][1,4]oxazepin-3-yl)-4-(1,4-dioxan-2-yl)-5-methylpyrimidine-2-carboxamide] here?
A: 357 nM

Q: Which IC50 does the source give for CN1C(=O)[C@@H](NC(=O)c2ncc(Cl)c(-c3cc(F)c(CO)c(F)c3)n2)COc2cc(F)cnc21 [Example 166, (S)-5-chloro-4-(3,5-difluoro-4-(hydroxymethyl)phenyl)-N-(8-fluoro-5-methyl-4-oxo-2,3,4,5-tetrahydropyrido[3,2-b][1,4]oxazepin-3-yl)pyrimidine-2-carboxamide] here?
A: 196 nM

Q: With O=C(N[C@H]1COc2cc(F)cnc2NC1=O)c1ncc(Cl)c(-c2ccc(F)cc2F)n1 [Example 167, (S)-5-chloro-4-(2,4-difluorophenyl)-N-(8-fluoro-4-oxo-2,3,4,5-tetrahydropyrido[3,2-b][1,4]oxazepin-3-yl)pyrimidine-2-carboxamide] as the molecule, how does the IC50 read?
A: 464 nM

Q: Which IC50 does the source give for [2H]C([2H])([2H])N1C(=O)[C@@H](NC(=O)c2ncc(Cl)c(-c3cccc(F)c3F)n2)COc2cc(F)cnc21 [Example 168, (S)-5-chloro-4-(2,3-difluorophenyl)-N-(8-fluoro-5-(methyl-d3)-4-oxo-2,3,4,5-tetrahydropyrido[3,2-b][1,4]oxazepin-3-yl)pyrimidine-2-carboxamide] here?
A: 45.2 nM

Q: How did the IC50 turn out when [2H]C([2H])([2H])c1cnc(C(=O)N[C@H]2COc3cc(F)cnc3N(C([2H])([2H])[2H])C2=O)nc1-c1ccccc1F [Example 169, (S)—N-(8-fluoro-5-(methyl-d3)-4-oxo-2,3,4,5-tetrahydropyrido[3,2-b][1,4]oxazepin-3-yl)-4-(2-fluorophenyl)-5-(methyl-d3)pyrimidine-2-carboxamide] was run?
A: 20.9 nM

Q: With [2H]C([2H])([2H])N1C(=O)[C@@H](NC(=O)c2ncc(C)c(-c3ccccc3F)n2)COc2cc(F)cnc21 [Example 170, (S)—N-(8-fluoro-5-(methyl-d3)-4-oxo-2,3,4,5-tetrahydropyrido[3,2-b][1,4]oxazepin-3-yl)-4-(2-fluorophenyl)-5-methylpyrimidine-2-carboxamide] as the molecule, how does the IC50 read?
A: 15.8 nM

Q: Cc1cnc(C(=O)N[C@H]2COc3ccc(S(C)(=O)=O)cc3N(C)C2=O)nc1-c1ccccc1F [Example 171, (S)-4-(2-fluorophenyl)-5-methyl-N-(5-methyl-7-(methylsulfonyl)-4-oxo-2,3,4,5-tetrahydrobenzo[b][1,4]oxazepin-3-yl)pyrimidine-2-carboxamide] was tested. Which IC50 did it give?
A: 120 nM

Q: Cc1cnc(C(=O)N[C@H]2COc3cc(Cl)cnc3N(C)C2=O)nc1C1CC(F)(F)CCN1 (stereo partly drawn) [Example 172, N—((S)-8-chloro-5-methyl-4-oxo-2,3,4,5-tetrahydropyrido[3,2-b][1,4]oxazepin-3-yl)-4-(4,4-difluoropiperidin-2-yl)-5-methylpyrimidine-2-carboxamide] was tested. Which IC50 did it give?
A: 175 nM
